In publication PMC9866861, “The More the Better—Investigation of Polymethoxylated N-Carboranyl Quinazolines as Novel Hybrid Breast Cancer Resistance Protein Inhibitors” (Pharmaceutics, 2023):
Entries after “also recorded” stand apart in the source; their conditions may differ.

Assays:
MDCKII-WT cells = assay: WST-1 cell proliferation assay (cytotoxicity), MDCKII-WT; format: cell-based, canine; conditions: WST-1, 48 h; for IC50: IC50 = 50% reduced cell viability, mean ± SEM, N = 3
Protocol: (§1) The MDCKII-hABCG2 and MDCKII-WT cells were purchased from Alfred Schinkel (Het Nederlands Kanker Instituut, Amsterdam, The Netherlands) and were cultivated in MEM (minimal essential medium) with Earle’s Salts (2.2 g/L NaHCO3, stable glutamine; Biowest, Nuaillé, France) supplemented with 10% (v/v) fetal calf serum (Life Technology, Karlsruhe, Germany), 1% (v/v) non-essential amino acids (Biowest, Nuaillé, France), 100 U/mL penicillin, and 100 µg/mL streptomycin (Biowest, Nuaillé, France). The cells were grown in a humidified atmosphere (37 °C, 5% CO2) and were sub-cultured every 3 to 4 days using 0.05% trypsin/0.02% EDTA (Biowest, Nuaillé, France), up to a total of 14 passages.
(§2) MDCKII-hABCG2 cells and their parental MDCKII-WT cells were seeded in 96-well plates (TPP, Trasadingen, Switzerland) in a density of 2 × 10^4 cells/mL and 3 × 10^4 cells/mL, respectively. After 48 h, the cells were incubated with increasing concentrations of up to 50 µM of the novel synthesized compounds, with 0.1% Triton X-100 as the positive control and solvent (0.1% DMSO) as the negative control for 48 h. Afterwards, the substance-specific cytotoxicity was determined by the water-soluble tetrazolium-1 (4-[3-(4-iodophenyl)-2-(4-nitro-phenyl)-2H-5-tetrazolio]-1,3-benzene sulfonate; WST-1) assay as previously described. The cell viability was determined by microplate reader at 450 nm (Tecan Sunrise, Crailsheim, Germany). The data of three independent experiments (N = 3) were tested for normality with the Shapiro-Wilk test. The significant differences compared to solvent control were analyzed by one-way ANOVA with the Holm-Šidák post hoc test using SigmaPlot 14.5 (Systec Software, San Jose, CA, USA). The data were normalized against the vehicle control (0.1% DMSO) and were expressed as mean ± SEM.

MDCKII-hABCG2 cells [1] = assay: WST-1 cell proliferation assay (cytotoxicity), MDCKII-hABCG2; format: cell-based, canine; conditions: for IC50: WST-1, 48 h, IC50 = 50% reduced cell viability, mean ± SEM, N = 3; for cell viability: MDCKII-hABCG2, highest concentration 50 µM, 48 h
Protocol: as §1, §2

human ABCG2 transporter = target: T1, human ABCG2 transporter (Homo sapiens, UniProt Q9UNQ0); assay: Hoechst 33342 accumulation assay (MDCKII-hABCG2 vs MDCKII-WT); format: cell-based; conditions: for intracellular Hoechst 33342 accumulation / inhibition of ABCG2-mediated Hoechst efflux: 0.5 and 1.0 µM compound, Ko143 1 µM, 4 h, vs solvent control; for inhibition of human ABCG2 transporter in Hoechst 33342 accumulation assay: 0.5 µM
T1 construct: expressed in transfected cells; host or cells: MDCKII (Madin-Darby canine kidney) cells transfected with human ABCG2
T1 sequence (Q9UNQ0 1-655): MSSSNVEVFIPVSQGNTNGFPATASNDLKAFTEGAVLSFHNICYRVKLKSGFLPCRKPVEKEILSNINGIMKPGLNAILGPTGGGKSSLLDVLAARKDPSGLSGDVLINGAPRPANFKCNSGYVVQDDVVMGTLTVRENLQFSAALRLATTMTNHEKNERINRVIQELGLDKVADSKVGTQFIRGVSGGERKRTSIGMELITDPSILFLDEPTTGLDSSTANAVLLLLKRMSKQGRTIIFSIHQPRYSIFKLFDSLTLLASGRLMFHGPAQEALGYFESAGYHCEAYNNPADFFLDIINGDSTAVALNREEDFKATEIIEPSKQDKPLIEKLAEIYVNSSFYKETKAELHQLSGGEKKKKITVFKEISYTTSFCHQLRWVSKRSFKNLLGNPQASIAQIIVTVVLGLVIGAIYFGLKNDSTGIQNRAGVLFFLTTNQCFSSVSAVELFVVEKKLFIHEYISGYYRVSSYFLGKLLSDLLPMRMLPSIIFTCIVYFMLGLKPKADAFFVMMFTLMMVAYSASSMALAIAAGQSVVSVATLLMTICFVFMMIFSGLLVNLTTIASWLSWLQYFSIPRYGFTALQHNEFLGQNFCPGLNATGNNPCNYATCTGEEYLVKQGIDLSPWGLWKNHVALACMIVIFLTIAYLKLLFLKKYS
Protocol: The Hoechst 33342 accumulation assay was used to detect an interaction of the investigated compounds with the human ABCG2 transporter. The assay protocol was adapted from that published by Wassermann et al.. The MDCKII-hABCG2 (2 × 10^4 cells/mL) and MDCKII-WT (3 × 10^4 cells/mL) cells were seeded in 96-well plates and cultured for 72 h. Afterwards, the sub-confluent monolayers were treated with 0.5 µM and 1.0 µM of the investigational compounds or its respective solvent control (0.1% DMSO) for 4 h. […] After 5 and 20 min, the cells were washed twice with ice-cold PBS buffer solution and lyzed with 100 µL/well 0.1% (v/v) SDS/PBS. The intracellular Hoechst 33342 amount was detected by spectrofluorometry (360 nm excitation/465 nm emission wavelengths, Tecan Infinite F200 Pro, Crailsheim, Germany). The examined fluorescence subtracted by the background of non-treated cells was correlated to the protein amount quantified by the bicinchoninic acid assay (BCA, Thermo Scientific, Rockford, IL, USA) following the manufacturer’s instructions. Relative fluorescence units (RFU) were calculated as the relation of fluorescence/mg protein of MDCKII-hABCG2 cells to MDCKII-WT cells, normalized to the solvent control set as 1 and expressed as mean ± SEM. The data from the Hoechst 3342 accumulation assay (five independent experiments N = 5) were tested for normality with the Shapiro-Wilk test. Significant differences compared to the solvent control were analyzed by one-way ANOVA with the Holm-Šidák post hoc test using SigmaPlot 14.5 (Systec Software, San Jose, CA, USA). An inhibition of human ABCG2 efflux transport activity is defined as the significant difference to the solvent control (0.1% DMSO).

MDCKII-hABCG2 cells [2] = assay: Reversal of ABCG2-mediated mitoxantrone resistance (WST-1); format: cell-based, canine; conditions: for Left-Shift Factor: MDCKII-hABCG2, MXN + 1 µM compound, (IC50 minus SEM of MXN alone) by (IC50 plus SEM of combination)
Protocol: Afterwards, the WST-1 assay was performed as described. […] All data were normalized against the vehicle control and were expressed as mean ± SEM, calculated from at least three independent experiments.

| Substance | decreased cell viability (MDCKII-WT cells; MDCKII-WT) [%] | IC50 (MDCKII-WT cells) [µM] | IC50 (MDCKII-hABCG2 cells [1]) [µM] | intracellular Hoechst 33342 accumulation / inhibition of ABCG2-mediated Hoechst efflux (human ABCG2 transporter) | Left-Shift Factor (MDCKII-hABCG2 cells [2]) | decreased cell viability (MDCKII-hABCG2 cells [1]; MDCKII-hABCG2, WST-1, 48 h, up to 50 µM) | inhibition of human ABCG2 transporter in Hoechst 33342 accumulation assay (human ABCG2 transporter) | reversal of MXN resistance (MDCKII-hABCG2 cells [2]; MDCKII-hABCG2, 1 µM compound with MXN) | cell viability (MDCKII-hABCG2 cells [1]) [%] |
| --- | --- | --- | --- | --- | --- | --- | --- | --- | --- |
| N-(closo-1,7-dicarbadodecaboran(12)-9-yl)-6,7-dimethoxy-2-(4-methoxy-phenyl)quinazolin-4-amine [DMQCb] | ~30 | > 25 | > 25 | only marginal increases in Hoechst 33342 accumulation; also recorded: no significant inhibition | 7.2-fold | – | – | – | – |
| N-(closo-1,7-dicarbadodecaboran(12)-9-yl)-2-(3,4-dimethoxyphenyl)-quinazolin-4-amine [QCc] | – | > 50 | > 50 | the only compound exhibiting inhibition within the tested concentration range | 5.4-fold | about 40% | inhibited the human ABCG2 transporter | able to reverse MXN resistance | – |
| N-(closo-1,7-dicarbadodecaboran(12)-9-yl)-6,7-dimethoxy-2-(3,4-dimethoxy-phenyl)-quinazolin-4-amine [DMQCc] | – | > 50 | > 50 | only marginal increases in Hoechst 33342 accumulation; also recorded: no significant inhibition | 9.8-fold | – | – | – | – |
| N-(closo-1,7-dicarbadodecaboran(12)-9-yl)-2-(4-methoxyphenyl)-quinazolin-4-amine [QCb] | – | 44.17 ± 0.174 | > 10 | did not affect the human ABCG2-mediated Hoechst efflux | – | – | – | – | 30 |
| N-(closo-1,7-dicarbadodecaboran(12)-9-yl)-2-(3,4,5-trimethoxyphenyl)-quinazolin-4-amine [QCd] | – | > 50 | > 50 | did not affect the human ABCG2-mediated Hoechst efflux | – | – | – | – | – |
| N-(closo-1,7-dicarbadodecaboran(12)-9-yl)-6,7-dimethoxy-2-(3,4,5-trimethoxyphenyl)-quinazolin-4-amine [DMQCd] | – | > 50 | > 50 | strongest inhibition at 0.5 µM with a comparable level as the reference Ko143 | – | – | inhibited the human ABCG2 transporter | – | – |
| N-(closo-1,7-dicarbadodecaboran(12)-9-yl)-2-phenylquinazolin-4-amine [QCa] | – | 43.23 ± 0.159 | > 10 | did not affect the human ABCG2-mediated Hoechst efflux | – | – | – | – | 30 |
| N-(closo-1,7-dicarbadodecaboran(12)-9-yl)-6,7-dimethoxy-2-phenyl-quinazolin-4-amine [DMQCa] | – | > 50 | > 50 | improved inhibitory potency at 1.0 µM | 4.3-fold | – | – | – | – |
